# Columns and labels:
# Rac-GTP in HGF cells = assay: Rac-GTP immunofluorescence in scratch wound assay, nicotine-exposed HGF; type: cell-based, human
# Method: (§1) Both cell types tested (HGF and HPDL) were plated at 5×10^4 cells/well in a Lab-Tek II chamber glass slide with cover (Nalge Nunc International, Rochester, N.Y.). Approximately 400 μl of cell medium suspension was added to each well. The cells were grown overnight until confluent. Cells were pretreated with nicotine (10 mM, 8 mM and 6 mM) for two hours and then treated with antioxidants (resveratrol, trans=ferulic acid, tetrahydrocurcuminoids CG™, or phloretin) in double or triple combinations at 0.4% w/v (10^−5M). Two hours later, a scratch wound assay was performed using a sterile 10 μl pipet tip.
# (§2) The cells were fixed with 4% paraformaldehyde for 30 minutes and then washed with sterile phosphate buffered saline (PBS) three times. […] The secondary antibody (1:500 Alexa Fluor® 488 goat anti-mouse IgG (H+L) (Molecular Probes, Eugene, Oreg.) was incubated for two hours at room temperature. The stained cells were washed with PBS three times. The Lab-Tek II wells were removed and the cells were cover-slipped with slowfade mounting medium. Analysis of the levels of Rac-GTP at the leading edge of the wound were determined using confocal microscopy. All treatments were recorded with the same settings on a Leica SP2 microscope. All images were taken from projected z stacks of the immunolabeled cells. Intensity of Rac-GTP immunofluorescence was determined using Nikon Elements software. […]
# [1] = tested on: Human periodontal ligament fibroblasts (HPDL)
# Method: Culture conditions as described in HGF were similarly employed in the HPDL cells. In this experiment, 5×10^3 cells in 100 μL of culture medium were seeded into each well of a 96-well plate. […] Bioactive antioxidant mixtures tested included: resveratrol, ferulic acid and tetrahydrocurcuminoids (RFT), phloretin, ferulic acid and resveratrol (PFR), phloretin, ferulic acid and tetrahydrocurcuminoids (PFT).
# Cells were washed with PBS and treated with antioxidant mixtures (RFT, PFR, PFT) in 0.1% FBS medium (DMEM and 1% antimycotic/antiobiotic) for 24 hours.
# Different ethanol concentrations (15%, 10% and 5%) were used for dose response experiments for 30 or 60 minutes.
# After pretreatment with ethanol or H2O2, the cells were rinsed and treated with 10^−5M (0.4% wt/v) antioxidant mixture (RFT, PFR, PFT) for 24 hrs.
# (§3) Cell viability and survival were assessed by MTS colorimetric assay (3-[4,5-dimethylthiazol-2-yl]-5-[3-carboxymethoxyphenyl]-2-[4-sulfophenyl]-2H-tetrazolium) (Promega Corp., Madison, Wis.). This quantitative assay detects living but not dead cells. […] The absorbance at 490 nm was measured using a SpectraMax microplate spectrophotometer (Molecular Devices, Sunnyvale, Calif.). […]
# a. Percent viable cells were expressed as; A/B, where A is absorbance at 490 nm with antioxidant compounds (RFT, PFR, PFT) and H2O2 or Ethanol pre-treatments; B absorbance at 490 nm with 0.1% FBS (control). […]
# [2] = tested on: human gingival fibroblasts (HGF)
# Method: Human gingival tissues from healthy nonsmokers were collected with institutional review board approval and tissues were cultured in high glucose Dulbecco's modified eagles medium (DMEM), 10% FBS, and 1% antimycotic/antiobiotic. Tissues were incubated at 37° C. in a humidified gas mixture (5% CO2 and 95% air) and medium was changed every 24 hours. Human gingival fibroblasts (HGF) grew from the tissue after a week. Cells were passaged using 0.25% trypsin solutions and plated in new tissue culture flasks when confluent. Passages 3-12 were used in all of the experiments.
# In this experiment, 5×10^3 cells in 100 μL of culture medium were seeded into each well of a 96-well plate. […]
# as §3
# Percent viable cells were expressed as; A/B, where A is absorbance at 490 nm with antioxidant compounds (RFT, PFR, PFT) and H2O2 or Ethanol pre-treatments; B absorbance at 490 nm with 0.1% FBS (control). […]
# [3] = tested on: human gingival fibroblast (HGF) cells; details: 6, 8 or 10 mM nicotine, two hours
# Method: Cells were then treated with a solution containing either the three antioxidants described above, or a 1:1 ratio of only two antioxidants, or only a single antioxidant. Cell migration was recorded using BioStation Live Cell Imaging (Nikon Instruments, Melvile, N.Y.) every hour for ten hours, and data presented here is for 1 hour, 5 hours, or 10 hours.
# Rac-GTP in HPDL cells = assay: Rac-GTP immunofluorescence in scratch wound assay, nicotine-exposed HPDL; type: cell-based, human; details: nicotine 6 mM, 8 mM, 10 mM
# Method: as §1, §2
compound,measurement,setting,value
COc1cc(/C=C/C(=O)O)ccc1O [trans-ferulic acid],"increase of Rac-GTP expression over nicotine treated cells (6 mM Nic), mean pixel intensity","Rac-GTP in HGF cells; 6 mM nicotine two hours, then antioxidants 10^−5 M, leading edge of the wound",35%
"OO [Formulation H2O2, hydrogen peroxide]",viable cells (MTS) after H2O2,[1],dose-dependent decrease of viable cells
same,viable cells (MTS) after H2O2,[2],dose-dependent decrease of viable cells
CN1CCCC1c1cccnc1 (centres unmarked) [nicotine],effect of nicotine on cell migration,[3],deleterious effect on cell migration that increased with exposure to more concentrated nicotine
same,effect of nicotine on Rac-GTP expression,Rac-GTP in HPDL cells,dose dependent decrease
same,effect of nicotine on Rac-GTP expression,"Rac-GTP in HGF cells; nicotine 6 mM, 8 mM, 10 mM",dose dependent decrease
ethyl alcohol [Ethanol],cell viability (MTS) after ethanol,[1],dose dependent effect on cell viability
same,cell viability (MTS) after ethanol,[2],dose dependent effect on cell viability
